From PMC10011747, “Targeting androgen receptor and the variants by an orally bioavailable Proteolysis Targeting Chimeras compound in castration resistant prostate cancer” (eBioMedicine, 2023)
Where two headings read alike, the source gives them in different places.

Tests used:
Assay type in all cases: cell-based
AR-V7 = target: T1, AR-V7 (Homo sapiens, UniProt P10275); test: AR-V7 degradation by western blot (AR-V7 specific antibody); conditions: for DC50: 24 h treatment; for Dmax at 20 µM: maximum degradation at 20 μM
T1 construct: endogenous in cells; host or cells: CWR22Rv1, VCaP
T1 sequence (P10275 1-644 isoform P10275-3): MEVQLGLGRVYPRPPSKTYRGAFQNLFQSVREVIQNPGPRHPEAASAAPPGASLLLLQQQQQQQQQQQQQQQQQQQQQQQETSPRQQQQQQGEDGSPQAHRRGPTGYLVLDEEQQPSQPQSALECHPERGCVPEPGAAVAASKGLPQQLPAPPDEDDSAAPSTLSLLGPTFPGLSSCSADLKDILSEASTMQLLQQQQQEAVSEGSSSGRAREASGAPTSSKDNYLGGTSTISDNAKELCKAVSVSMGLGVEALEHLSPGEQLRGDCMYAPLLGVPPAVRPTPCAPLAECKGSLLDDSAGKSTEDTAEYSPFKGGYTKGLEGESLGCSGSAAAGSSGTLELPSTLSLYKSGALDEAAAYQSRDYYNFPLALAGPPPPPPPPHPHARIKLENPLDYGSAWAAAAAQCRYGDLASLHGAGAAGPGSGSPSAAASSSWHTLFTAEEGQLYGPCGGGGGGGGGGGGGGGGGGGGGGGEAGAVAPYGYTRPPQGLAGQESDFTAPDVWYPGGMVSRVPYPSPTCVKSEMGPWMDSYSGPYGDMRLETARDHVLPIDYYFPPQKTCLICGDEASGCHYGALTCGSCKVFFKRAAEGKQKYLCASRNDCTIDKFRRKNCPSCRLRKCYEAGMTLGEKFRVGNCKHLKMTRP
Protocol: To obtain total lysates, cells were lysed in RIPA buffer (50 mM Tris–HCl pH 8.0, 150 mM NaCl, 1% NP-40, 0.5% Na-deoxycholate, 0.5% SDS plus protease inhibitors). The lysates were resolved by SDS-polyacrylamide gel electrophoresis, and the protein expression was analyzed by western blotting using primary antibodies against AR (Millipore Cat# 06-680, RRID:AB_310214), AR-V7 (RevMAb Biosciences Cat# 31-1109-00, RRID:AB_2716436), GAPDH (Cell Signaling Technology Cat# 2118, RRID:AB_561053) and Actin (Sigma–Aldrich Cat# A5441, RRID:AB_476744). pLenti4/TO/Flag-AR or pLenti4/TO/Flag-TC-AR plasmid was co-transfected with HA-ubiquitin plasmid into 293T cells. 24 h after transfection, the cells were treated with 10 μM of the PROTAC compounds for 16 h, followed by 4-h treatment of 5 μM MG132. The cells were lysed with lysis buffer (50 mM Tris–HCl pH7.5, 150 mM NaCl, 0. 5% Triton X-100, 10% glycerol, 1 mM EDTA plus protease inhibitors) containing 1 ng/mL of N-ethylmaleimide, followed by immunoprecipitation with anti-Flag M2 (Sigma–Aldrich Cat# F3165, RRID:AB_259529) antibody. The ubiquitinated AR was then detected by western blotting using anti-HA (Sigma–Aldrich Cat# H3663, RRID:AB_262051) antibody.
Fig. 1 PROTAC-based AR degraders ITRI-90, ITRI-125 and ITRI-126 reduce AR and AR-V7 proteins in prostate cancer cell lines. (a) Chemical structure of the PROTAC AR degraders. (b) Representative western blots of AR protein levels in LNCaP, CWR22Rv1 and VCaP cells treated with the PROTAC degraders for 24 h. AR was detected by N-terminal antibody which also detects C-terminal truncated AR-V(ΔLBD) in CWR22Rv1 cells. AR-V7 specific antibody was used for AR-V7 detection. 4%–12% gradient gel was used to separate different species of AR-V(ΔLBD) near 75 kDa in CWR22Rv1 cell lysates. DC50 indicating the concentration required to achieve 50% degradation, was calculated based on normalized full-length AR and AR-V7 band intensity. Dmax is the maximum degradation achieved at 20 μM compound treatment. TEXT PRINTED IN THE PICTURE: (a) ITRI-90: AR DC50 (μM) LNCaP: 2.12 ± 0.93; AR DC50 (μM) CWR22Rv1: 5.73 ± 2.28; AR DC50 (μM) VCaP: 8.67 ± 4.87; AR-V7 DC50 (μM) CWR22Rv1: 4.72 ± 2.52; AR-V7 DC50 (μM) VCaP: 0.29 ± 0.15; AR Dmax (%) LNCaP: 88; AR Dmax (%) CWR22Rv1: 98; AR Dmax (%) VCaP: 90; AR-V7 Dmax (%) CWR22Rv1: 100; AR-V7 Dmax (%) VCaP: 63 | (a) ITRI-125: AR DC50 (μM) LNCaP: 6.10 ± 4.43; AR DC50 (μM) CWR22Rv1: 6.64 ± 1.87; AR DC50 (μM) VCaP: 9.05 ± 3.75; AR-V7 DC50 (μM) CWR22Rv1: 1.89 ± 1.06; AR-V7 DC50 (μM) VCaP: 0.52 ± 0.37; AR Dmax (%) LNCaP: 71; AR Dmax (%) CWR22Rv1: 96; AR Dmax (%) VCaP: 85; AR-V7 Dmax (%) CWR22Rv1: 99; AR-V7 Dmax (%) VCaP: 67 | (a) ITRI-126: AR DC50 (μM) LNCaP: 3.41 ± 3.13; AR DC50 (μM) CWR22Rv1: 0.11 ± 0.02; AR DC50 (μM) VCaP: 0.851 ± 0.43; AR-V7 DC50 (μM) CWR22Rv1: 0.011 ± 0.003; AR-V7 DC50 (μM) VCaP: 0.43 ± 0.19; AR Dmax (%) LNCaP: 99; AR Dmax (%) CWR22Rv1: 74; AR Dmax (%) VCaP: 94; AR-V7 Dmax (%) CWR22Rv1: 91; AR-V7 Dmax (%) VCaP: 82

LNCaP cells = test: alamarBlue cell viability, LNCaP; conditions: Homo sapiens, 168 h, 7 days treatment, normal hormone condition
Protocol: (§1) Cells were seeded in triplicate in 96-well plates 1 day prior to drug treatment for all assays. For viability test and IC50 assessment, the alamarBlue™ Cell Viability Reagent (Thermo Fisher Scientific) was added to cells 7 days after PROTAC treatment, followed by fluorescence detection as the manufacturer instructed. The IC50 was calculated by dose-inhibition regression. For proliferation monitoring, 2, 4, 6 and 8 days after PROTAC treatment (day 0), viable cells were detected by MTT Cell Proliferation Kit I (Sigma–Aldrich) according to the manufacturer's instructions. Cellular caspase activity was measured by Caspase-Glo 3/7 Assay System (Promega) 1 or 2 days after the drug treatment.

VCaP cells = test: alamarBlue cell viability, VCaP; conditions: Homo sapiens, 168 h, 7 days treatment, normal hormone condition
Protocol: as §1

[1] = CWR22Rv1 cells, read-out: AR-V7 DC50 CWR22Rv1
[2] = CWR22Rv1 cells, read-out: AR-V7 Dmax CWR22Rv1
[3] = VCaP cells, read-out: AR-V7 DC50 VCaP
[4] = VCaP cells, read-out: AR-V7 Dmax VCaP

Row | SMILES | DC50 (AR-V7; [1]) [µM] | Dmax at 20 µM (AR-V7; [2]) [%] | DC50 (AR-V7; [3]) [µM] | Dmax at 20 µM (AR-V7; [4]) [%] | IC50 (LNCaP cells) [µM] | IC50 (VCaP cells) [µM]
1 | Cc1ncsc1-c1ccc(CNC(=O)[C@@H]2C[C@H](O)CN2C(=O)[C@@H](NC(=O)COCCCCOc2ccc(C3CCN(C4=Nn5c(nnc5C(F)(F)F)CC4)CC3)cc2)C(C)(C)C)cc1 [ITRI-90, (2S,4S)-1-((S)-3,3-dimethyl-2-(2-(4-(4-(1-(3-(trifluoromethyl)-7,8-dihydro-[1,2,4]triazolo[4,3-b]pyridazin-6-yl)piperidin-4-yl)phenoxy)butoxy)acetamido)butanoyl)-4-hydroxy-N-(4-(4-methylthiazol-5-yl)benzyl)pyrrolidine-2-carboxamide] | 4.72 ± 2.52 | 100 | 0.29 ± 0.15 | 63 | 6.59 ± 3.13 | 5.45 ± 1.74
2 | O=C1CCC(N2Cc3c(NC(=O)COCCCCOc4ccc(C5CCN(C6=Nn7c(nnc7C(F)(F)F)CC6)CC5)cc4)cccc3C2=O)C(=O)N1 (stereo not drawn) [ITRI-126, N-(2-(2,6-dioxopiperidin-3-yl)-1-oxoisoindolin-4-yl)-2-(4-(4-(1-(3-(trifluoromethyl)-7,8-dihydro-[1,2,4]triazolo[4,3-b]pyridazin-6-yl)piperidin-4-yl)phenoxy)butoxy)acetamide] | 0.011 ± 0.003 | 91 | 0.43 ± 0.19 | 82 | 0.464 ± 0.093 | 0.448 ± 0.154
3 | Cc1ncsc1-c1ccc(CNC(=O)[C@@H]2C[C@H](O)CN2C(=O)[C@@H](NC(=O)COCCCCCCOc2ccc(C3CCN(C4=Nn5c(nnc5C(F)(F)F)CC4)CC3)cc2)C(C)(C)C)cc1 [ITRI-125, (2S,4S)-1-((S)-3,3-dimethyl-2-(2-(6-(4-(1-(3-(trifluoromethyl)-7,8-dihydro-[1,2,4]triazolo[4,3-b]pyridazin-6-yl)piperidin-4-yl)phenoxy)hexyloxy)acetamido)butanoyl)-4-hydroxy-N-(4-(4-methylthiazol-5-yl)benzyl)pyrrolidine-2-carboxamide] | 1.89 ± 1.06 | 99 | 0.52 ± 0.37 | 67 | 6.36 ± 2.1 | 3.06 ± 0.936
